# According to patent publication US20230080241A1 (priority 2020, published 2023):
# pIC50: −log10 of the molar value. Like-named read-outs stand apart in the source and are kept apart here.
# Experiments:
# [1] = system: Plasmodium falciparum; test: in vitro asexual blood stage growth of Plasmodium falciparum; format: cell-based; conditions: for pIC50: Plasmodium falciparum, P. falciparum in vitro
# Method: Presented herein is experiment data representing tranexamic acid as an antimalarial druggable scaffold. The results shown below show the efficacy of tranexamic acid against both Plasmodium falciparum and P. berghei across the parasite lifecycle. The data herein illustrates the ability of tranexamic acid to act as an antimicrobial agent, and more particularly, in some embodiments, as an antimalarial drug. Experiments were conducted to test, in vitro, the ability of tranexamic acid to impair the asexual intraerythrocytic development of P. falciparum. All of the symptoms associated with malaria infection are caused by the asexual blood stages, which makes them a logical therapeutic target.
# Up to six different concentrations of tranexamic acid plus a negative control (carrier with no drug) were tested in a highly synchronous culture. A two-fold serial dilution starting at 200 mM was prepared, replenishing the drug daily for four consecutive days (i.e. two complete intraerythrocytic cycles).
# FIG. 1 illustrates in vitro asexual blood stage growth at day 1 after 1 dose of tranexamic acid (TXA). Values are the mean of three technical replicates, and error bars represent the standard deviation. FIG. 2 illustrates in vitro asexual blood stage growth at day 3 after 3 doses of tranexamic acid (TXA). Values are the mean of three technical replicates, and error bars represent the standard deviation. FIG. 3 illustrates in vitro IC50 of tranexamic acid after three daily doses. Values are the mean of three technical replicates, relative to the minimal effect (i. e. the parasitemia from the samples with no drug). Error bars represent the standard deviation. Morphological defective parasites could be observed at day 4 in the two lowest tested concentrations (i.e. 12.5 and 6.25 mM). Healthy segmented schizonts were selected from the sample mock-treated in the absence of tranexamic acid (0 mM).
# [2] = system: Plasmodium berghei ANKA mCherry; format: in vivo, mice (outbred CD1); conditions: mice
# Method: In addition to in vitro experiments to test the ability of tranexamic acid to impair the asexual intraerythrocytic development of P. falciparum, experiments were conducted to test, in vivo, the ability of tranexamic acid to cure asynchronized blood stage infections of Plasmodium berghei ANKA mCherry in mice. P. berghei is a species in the genus Plasmodium subgenus Vinckeia and is a protozoan parasite that causes malaria in rodents. Due to its ability to infect rodents and relative ease of genetic engineering, P. berghei is a popular model organism for the study of human malaria, and was thus used in the present disclosure.
# Recipient mice (n=5/group; 3 groups) received blood from a donor mouse containing asynchronous asexual blood stages of P. berguei. Parasitemia was monitored and when it reached at least 5% mice were treated intravenously (i.v.) with 20, 10, or 0 mg of tranexamic acid in a phosphate-buffered saline (PBS) carrier. Blood smears from tail snips were prepared every 24 hours, or until the humane endpoint criteria was reached, to monitor parasitemia.
# FIG. 4 illustrates in vivo asexual blood stage growth of P. berghei after the injection of the PBS carrier. […]
compound,measurement,setting,value
NC[C@H]1CC[C@H](C(=O)O)CC1 [tranexamic acid],clearance of infection,"[1]; 100 mM, after 48 hours, two doses",cleared the infection
same,clearance of infection,"[1]; 200 mM, after 24 hours, single dose, FIG. 1",completely cleared the infection
same,parasite morphology,"[1]; 12.5 and 6.25 mM, day 4, some parasites arrested at schizont-like morphology",morphological defects could be observed
same,pIC50,"[1]; 72 h, after 3 daily doses, FIG. 3, read-out: IC50 at day 3",1.94
same,pIC50,"[1]; drug replenished on a daily basis, read-out: in vitro IC50",1.94
same,growth delay,"[1]; some of the tested concentrations, rings and early trophozoites on day 3 (72 hours after first dose), FIG. 2",a growth delay was observed
same,equivalent in vitro concentration based on estimated volemia,[2]; 10 mg injection i.v.,approximately 37 mM
same,equivalent in vitro concentration based on estimated volemia,[2]; 20 mg injection i.v.,~75 mM
